Test results reported in ChEMBL document CHEMBL5365513, “Discovery of Selective Tertiary Amide Inhibitors of Cyclin-Dependent Kinase 2 (CDK2)” (ACS Med Chem Lett, 2023).
Converted amounts (≈) assume the structure as drawn. The source made the active and inactive calls. No cut-off for these calls is given here.

Columns and labels:
[1] = Selectivity ratio of Ki for CDK1/Cyclin A2 (unknown origin) to Ki for CDK2/Cyclin E1 (unknown origin)
[2] = Antiproliferative activity against human OVISE cells assessed as inhibition of cell division incubated for 16 hrs by EdU incorporation assay; assay type: functional, cell-based
[3] = Selectivity ratio of Ki for CDK4/Cyclin D3 (unknown origin) to Ki for CDK2/Cyclin E1 (unknown origin)
[4] = Metabolic stability in mouse liver microsomes assessed as clearance at 1 uM incubated upto 180 mins by LC/MS-MS analysis; assay type: ADME, Microsome
[5] = Selectivity ratio of Ki for ERK2 (unknown origin) to Ki for CDK2/Cyclin E1 (unknown origin)
[6] = target: Cyclin-dependent kinase 2/cyclin E1 (Homo sapiens, UniProt P24941); experiment: Binding affinity to CDK2/Cyclin E1 (unknown origin) using Ulight-MBP as substrate assessed as inhibition constant preincubated for 30 mins followed by substrate addition measured after 90 mins in presence of ATP by TR-FRET assay; assay type: protein-complex assay
[7] = Metabolic stability in human liver microsomes assessed as clearance at 1 uM incubated upto 180 mins by LC/MS-MS analysis; assay type: ADME, Microsome
[8] = Selectivity ratio of IC50 for human SK-OV-3 cells to IC50 for human OVISE cells; assay type: functional
[9] = Apparent permeability across apical to basolateral side in MDCK cells at 5 uM measured for 60 to 180 mins by LC-MS/MS analysis; assay type: ADME, cell-based, Canis lupus familiaris; conditions: dog, time 60-180 min
[10] = Kinetic solubility of compound; assay type: physicochemical; conditions: read-out: Kinetic_solubility
[11] = system: OVCAR-3; experiment: Antitumor activity against human OVCAR-3 cells xenografted in C.B-17 SCID.bg mouse assessed as tumor growth inhibition at 80 mg/kg, po qd treated for 3 days relative to control; assay type: functional; conditions: OVCAR-3, 72 h, time 3 day, read-out: TGI
[12] = Oral bioavailability in CD-1 mouse at 50 mg/kg measured for 24 hrs by LC-MS/MS analysis; assay type: ADME, organism-based; conditions: in vivo
[13] = system: MDR1; experiment: Efflux ratio of apparent permeability across basolateral to apical side to apical to basolateral side in MDCK-MDR1 cells at 5 uM measured for 60 to 180 mins by LC-MS/MS analysis; assay type: ADME, cell-based, Canis lupus familiaris; conditions: dog, time 60-180 min
[14] = Lipophilicity, logD of compound at pH 7.4; assay type: physicochemical; conditions: buffer
[15] = AUC (infinity) in CD-1 mouse at 50 mg/kg, po measured for 24 hrs by LC-MS/MS analysis; assay type: ADME, organism-based; design: time 24 hrs, dose 50 mg/kg, route po; conditions: in vivo
[16] = target: Cyclin-dependent kinase 1 (Homo sapiens) (UniProt P06493); experiment: Inhibition of CDK1 (unknown origin) at 0.1 uM
Cyclin-dependent kinase 1 (Homo sapiens), sequence (P06493 whole entry, looked up): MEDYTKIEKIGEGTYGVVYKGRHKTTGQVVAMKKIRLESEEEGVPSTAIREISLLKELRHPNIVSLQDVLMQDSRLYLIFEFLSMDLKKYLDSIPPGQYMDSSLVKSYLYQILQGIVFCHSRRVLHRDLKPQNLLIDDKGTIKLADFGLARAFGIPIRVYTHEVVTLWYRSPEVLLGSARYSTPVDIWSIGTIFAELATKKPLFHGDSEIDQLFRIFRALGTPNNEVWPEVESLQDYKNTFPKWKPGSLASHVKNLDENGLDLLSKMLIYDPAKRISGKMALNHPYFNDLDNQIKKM

[17] = Protein binding in human plasma assessed as unbound fraction incubated for 24 hrs by HPLC analysis; assay type: ADME, cell-free
[18] = Half life in CD-1 mouse at 1 mg/kg, iv measured for 5 mins by LC-MS/MS analysis; assay type: ADME, organism-based; conditions: in vivo; for half-life: CD-1, mouse
[19] = Volume of distribution at steady state in CD-1 mouse at 1 mg/kg, iv measured for 5 mins by LC-MS/MS analysis; assay type: ADME, organism-based; conditions: in vivo; for Vd: CD-1, mouse, read-out: Vdss
[20] = target: Mitogen-activated protein kinase 1 (Homo sapiens, UniProt P28482); experiment: Binding affinity to ERK2 (unknown origin) using Ulight-MBP as substrate assessed as inhibition constant preincubated for 30 mins followed by substrate addition measured after 90 mins in presence of ATP by TR-FRET assay
Mitogen-activated protein kinase 1, sequence (P28482 whole entry): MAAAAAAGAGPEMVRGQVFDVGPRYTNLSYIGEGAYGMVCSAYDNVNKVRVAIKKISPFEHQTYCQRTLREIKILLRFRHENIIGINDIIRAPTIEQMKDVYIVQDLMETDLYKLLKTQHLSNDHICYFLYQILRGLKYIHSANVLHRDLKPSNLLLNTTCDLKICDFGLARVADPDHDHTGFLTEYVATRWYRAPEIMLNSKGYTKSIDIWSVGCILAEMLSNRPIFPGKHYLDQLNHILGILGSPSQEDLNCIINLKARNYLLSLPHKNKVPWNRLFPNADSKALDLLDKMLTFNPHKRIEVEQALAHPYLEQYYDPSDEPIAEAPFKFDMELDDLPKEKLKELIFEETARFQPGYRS

[21] = Clearance in CD-1 mouse at 1 mg/kg, iv measured for 5 mins by LC-MS/MS analysis; assay type: ADME, organism-based; conditions: in vivo
[22] = system: OVCAR-3; experiment: Antitumor activity against human OVCAR-3 cells xenografted in C.B-17 SCID.bg mouse assessed as tumor growth inhibition at 125 mg/kg, po qd treated for 3 days relative to control; assay type: functional; conditions: OVCAR-3, 72 h, time 3 day, read-out: TGI
[23] = system: OVCAR-3; experiment: Antitumor activity against human OVCAR-3 cells xenografted in C.B-17 SCID.bg mouse assessed as tumor growth inhibition at 50 mg/kg, po bid treated for 3 days relative to control; assay type: functional; conditions: OVCAR-3, 72 h, time 3 day, read-out: TGI

| SMILES | IC50 [2] [nM] | Ratio Ki [3] | CLhep predicted at 1 µM [4] [mL/min/kg] | Ratio Ki [5] | Ki [6] [nM] | CLhep predicted at 1 µM [7] [mL/min/kg] | Ratio IC50 [8] | Papp A→B at 5 µM [9] [×10⁻⁶ cm/s] | also measured |
| --- | --- | --- | --- | --- | --- | --- | --- | --- | --- |
| CC[C@H](Nc1nc(NCc2cnc(C)cc2C)c2ncn(C(C)C)c2n1)[C@@H](C)O [CYC-065] | 1100 | 57 |  |  |  |  |  |  | Ratio Ki [1]: 61 |
| Cc1cc(S(C)(=O)=O)ccc1Nc1ncc2ccc(C(=O)N3CCC[C@@H]3C)cc2n1 |  | 42 | 58 | 310 | 17 | 13 |  |  |  |
| CNS(=O)(=O)c1ccc(Nc2ncc3ccc(C(=O)N4C[C@@H](F)C[C@@H]4C)nc3n2)c(C)c1 | 250 | 270 | 19 |  | 0.63 | 12 | 48 | 1.6 |  |
| CNS(=O)(=O)c1ccc(Nc2ncc3ccc(C(=O)N4CC[C@@H]4C)nc3n2)c(F)c1 | 38 | 250 | 50 |  | 0.18 | 18 | 50 | 15 | solubility kinetic [10]: 31 µM (≈ 13.3 µg/mL); inhibition in vivo at 80 mg/kg [11]: 85%; bioavailability [12]: 9%; efflux ratio at 5 µM [13]: 13; logD [14]: 1.8; AUC(0-inf) [15]: 11 µM·h; inhibition [16]: Active; Fu [17]: 0.26%; t1/2 ([18]; mouse, iv, 1 mg/kg, 5 min): 17.4 min; Vdss ([19]; mouse, iv, 1 mg/kg, 5 min): 1.1 L/kg |
| CNS(=O)(=O)c1ccc(Nc2ncc3ccc(C(=O)N4CCC[C@@H]4C)cc3n2)cc1 |  | 150 | 76 | 850 | 0.34 | 19 |  |  |  |
| O=C(c1ccc2cnc(NC3CCOCC3)cc2n1)N1CCC1 |  |  |  | 1.8 | 13 |  |  |  |  |
| O=C(N[C@H](CO)c1ccc(Cl)c(F)c1)c1ccc2cnc(NC3CCOCC3)nc2c1 |  |  |  |  | 7.9 |  |  |  | Ki [20]: 0.22 nM |
| O=C(N[C@H](CO)c1ccc(Cl)c(F)c1)c1ccc2cnc(NC3CCOCC3)cc2n1 |  |  |  |  | 11 |  |  |  | Ki [20]: 0.36 nM |
| C[C@H]1CCN1C(=O)c1ccc2cnc(NC3CCN(S(C)(=O)=O)CC3)nc2c1 |  | 16 | < 14 |  | 0.13 | < 3.9 |  |  |  |
| O=C(N[C@H](CO)c1ccc(Cl)c(F)c1)c1ccc2cnc(NC3CCOCC3)nc2n1 |  |  |  |  | 6.5 |  |  |  | Ki [20]: 0.17 nM |
| CNS(=O)(=O)c1ccc(Nc2ncc3ccc(C(=O)N4C[C@H](F)C[C@@H]4C)cc3n2)c(C)c1 | 1500 | 72 | 67 |  | 8.7 | 14 | 13 |  |  |
| O=C(c1ccc2cnc(NC3CCOCC3)cc2n1)N1CCCCC1 |  |  |  | 4.3 | 920 |  |  |  |  |
| CNS(=O)(=O)c1ccc(Nc2ncc3ccc(C(=O)N4C[C@@H](OC)[C@@H]4C)nc3n2)c(F)c1 | 25 | 178 | 51 |  | 0.18 | 9.4 | 52 | 17 | solubility kinetic [10]: 33 µM (≈ 15.2 µg/mL); bioavailability [12]: 25%; clearance [21]: 39 mL/min/kg; efflux ratio at 5 µM [13]: 16; logD [14]: 1.7; AUC(0-inf) [15]: 13 µM·h; inhibition [16]: Active; Fu [17]: 0.28%; half-life [18]: 19.8 min; Vd [19]: 0.78 L/kg; inhibition in vivo at 125 mg/kg [22]: 81%; inhibition in vivo at 50 mg/kg [23]: 112% |
| CC1CCCCN1C(=O)c1ccc2cnc(NC3CCOCC3)cc2n1 (racemic) |  |  |  | 13 | 750 |  |  |  |  |
| C[C@H]1CCCN1C(=O)c1ccc2cnc(NC3CCN(S(N)(=O)=O)CC3)nc2c1 |  | 78 | 30 | 2800 | 0.18 | < 3.9 |  |  |  |
| C[C@H]1CCCN1C(=O)c1ccc2cnc(NC3CCN(S(C)(=O)=O)CC3)nc2c1 |  | 4.2 | 42 | 110 | 71 | < 3.9 |  |  |  |
| CNS(=O)(=O)c1ccc(Nc2ncc3ccc(C(=O)N4C[C@@H](F)[C@@H]4C)nc3n2)c(F)c1 | 33 | 271 | 50 |  | 0.21 | 17 | 88 | 15 |  |
| C[C@@H]1CCCN1C(=O)c1ccc2cnc(NC3CCN(S(C)(=O)=O)CC3)nc2c1 |  | 55 | 37 | > 10000 | 0.17 | < 3.9 |  |  |  |
| CNS(=O)(=O)c1ccc(Nc2ncc3ccc(C(=O)N4C[C@@H](F)C[C@@H]4C)nc3n2)c(F)c1 | 260 | 155 | 56 |  | 1.1 | 13 | 38 | 4.9 |  |
| O=C(c1ccc2cnc(NC3CCOCC3)cc2n1)N1CCCC1 |  |  |  | 6.8 | 88 |  |  |  |  |
| O=C(c1ccc2cnc(NC3CCOCC3)cc2n1)N1CCCCCC1 |  |  |  | 28 | 240 |  |  |  |  |
| COCc1cc(C(=O)Nc2cc([C@H]3CC[C@@H](OC(=O)NC(C)C)C3)[nH]n2)n(C)n1 [TEGTOCICLIB] | 160 |  |  |  |  |  |  |  |  |
| C[C@@]1(O)CCC[C@H]1n1c(=O)c(C(F)F)cc2cnc(NC3CCN(S(C)(=O)=O)CC3)nc21 [EBVACICLIB] | 46 |  |  |  |  |  |  |  |  |
| CNS(=O)(=O)c1ccc(Nc2ncc3ccc(C(=O)N4C[C@H](F)[C@@H]4C)nc3n2)c(F)c1 | 360 | 41 | 54 |  | 2.1 | 19 | 36 | 13 |  |
| CNS(=O)(=O)c1ccc(Nc2ncc3ccc(C(=O)N4C[C@@H](C#N)[C@@H]4C)nc3n2)c(F)c1 | 53 | 186 | 53 |  | 0.44 | 11 | 83 | 5 | solubility kinetic [10]: 3 µM (≈ 1.37 µg/mL); bioavailability [12]: 3%; clearance [21]: 18 mL/min/kg; logD [14]: 1.5; AUC(0-inf) [15]: 5.5 µM·h; Fu [17]: 0.31%; half-life [18]: 21.6 min; Vd [19]: 0.35 L/kg |
| CS(=O)(=O)N1CCC(Nc2ncc3ccc(C(=O)N4CCCC4)cc3n2)CC1 |  | 16 | 20 | 330 | 9 | < 3.9 |  |  |  |
| CNS(=O)(=O)c1ccc(Nc2ncc3ccc(C(=O)N4C[C@@H](F)C[C@@H]4C)cc3n2)c(C)c1 | 130 | 155 | 69 |  | 0.49 | 16 | 43 | 12 |  |
| CNS(=O)(=O)c1ccc(Nc2ncc3ccc(C(=O)N4CCC[C@@H]4C)cc3n2)c(C)c1 |  | 813 | 75 | 4800 | 0.16 | 18 |  |  |  |
| CNS(=O)(=O)c1ccc(Nc2ncc3ccc(C(=O)N4C[C@@H](O)[C@@H]4C)nc3n2)c(F)c1 | 430 | 89 | < 14 |  | 1 | < 3.9 | 47 | < 1 |  |
